# Assay results: ChEMBL document CHEMBL1649074, “Aurora kinase inhibitors based on the imidazo[1,2-a]pyrazine core: fluorine and deuterium incorporation improve oral absorption and exposure” (J Med Chem, 2011)
# Tests used:
# [1] = target: T1, Testis-specific serine/threonine-protein kinase 2 (Homo sapiens, UniProt Q96PF2); test: Inhibition of TSSK2
# T1 sequence (Q96PF2 whole entry): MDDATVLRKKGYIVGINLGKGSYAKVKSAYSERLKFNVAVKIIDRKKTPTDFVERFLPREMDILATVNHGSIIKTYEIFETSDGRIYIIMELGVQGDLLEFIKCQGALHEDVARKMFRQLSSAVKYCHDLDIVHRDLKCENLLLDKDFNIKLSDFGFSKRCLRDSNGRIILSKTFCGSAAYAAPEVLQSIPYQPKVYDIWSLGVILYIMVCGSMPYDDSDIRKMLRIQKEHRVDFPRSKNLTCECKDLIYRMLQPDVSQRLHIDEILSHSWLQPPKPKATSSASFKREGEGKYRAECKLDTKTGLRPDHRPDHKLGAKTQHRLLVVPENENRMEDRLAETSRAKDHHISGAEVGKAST
# [2] = target: Rho-associated protein kinase 2 (Homo sapiens, UniProt O75116); test: Inhibition of ROCK2
# [3] = target: Serine/threonine-protein kinase PLK3 (Homo sapiens, UniProt Q9H4B4); test: Inhibition of PLK3
# Serine/threonine-protein kinase PLK3, sequence (Q9H4B4 whole entry): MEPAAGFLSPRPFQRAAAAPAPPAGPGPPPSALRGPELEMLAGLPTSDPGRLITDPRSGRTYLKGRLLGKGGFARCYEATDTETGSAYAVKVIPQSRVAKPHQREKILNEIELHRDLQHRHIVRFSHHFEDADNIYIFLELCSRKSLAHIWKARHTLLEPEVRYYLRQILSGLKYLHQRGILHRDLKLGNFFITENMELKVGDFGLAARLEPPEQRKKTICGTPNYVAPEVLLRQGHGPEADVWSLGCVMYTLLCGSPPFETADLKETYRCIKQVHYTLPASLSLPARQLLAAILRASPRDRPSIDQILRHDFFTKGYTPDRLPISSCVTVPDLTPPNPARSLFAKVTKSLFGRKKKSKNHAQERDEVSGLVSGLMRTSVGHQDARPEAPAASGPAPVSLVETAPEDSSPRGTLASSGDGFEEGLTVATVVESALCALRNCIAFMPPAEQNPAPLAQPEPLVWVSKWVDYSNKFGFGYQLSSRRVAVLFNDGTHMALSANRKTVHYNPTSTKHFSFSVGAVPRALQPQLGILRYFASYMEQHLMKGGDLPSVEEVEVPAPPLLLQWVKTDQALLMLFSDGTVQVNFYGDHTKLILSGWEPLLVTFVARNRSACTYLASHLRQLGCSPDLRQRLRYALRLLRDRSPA
# [4] = target: Protein kinase C alpha type (Homo sapiens, UniProt P17252); test: Inhibition of PKCA
# [5] = target: T2, Inhibitor of nuclear factor kappa-B kinase subunit beta (Homo sapiens, UniProt O14920); test: Inhibition of IKK-beta
# T2 sequence (O14920 whole entry): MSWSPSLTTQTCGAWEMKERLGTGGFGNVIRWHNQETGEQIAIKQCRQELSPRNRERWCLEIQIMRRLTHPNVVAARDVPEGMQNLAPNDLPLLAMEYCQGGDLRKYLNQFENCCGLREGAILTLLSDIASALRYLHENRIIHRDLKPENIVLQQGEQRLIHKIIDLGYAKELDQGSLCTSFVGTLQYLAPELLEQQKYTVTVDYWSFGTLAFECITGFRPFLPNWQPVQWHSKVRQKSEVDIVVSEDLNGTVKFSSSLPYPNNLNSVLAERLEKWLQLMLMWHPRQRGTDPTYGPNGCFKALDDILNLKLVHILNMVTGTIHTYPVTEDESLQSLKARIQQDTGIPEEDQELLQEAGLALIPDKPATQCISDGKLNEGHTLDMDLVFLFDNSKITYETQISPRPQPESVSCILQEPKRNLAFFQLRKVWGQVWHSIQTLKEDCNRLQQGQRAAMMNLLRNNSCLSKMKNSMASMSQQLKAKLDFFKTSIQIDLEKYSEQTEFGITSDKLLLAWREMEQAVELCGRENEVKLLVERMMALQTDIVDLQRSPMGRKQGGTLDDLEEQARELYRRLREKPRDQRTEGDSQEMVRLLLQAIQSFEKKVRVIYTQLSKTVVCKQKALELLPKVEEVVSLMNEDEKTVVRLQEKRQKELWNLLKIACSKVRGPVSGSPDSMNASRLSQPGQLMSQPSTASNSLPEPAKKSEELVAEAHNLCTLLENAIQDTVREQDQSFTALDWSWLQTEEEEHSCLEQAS
# [6] = target: Insulin-like growth factor 1 receptor (Homo sapiens, UniProt P08069); test: Inhibition of IGF1R
# Insulin-like growth factor 1 receptor, sequence (P08069 31-736 limits assumed): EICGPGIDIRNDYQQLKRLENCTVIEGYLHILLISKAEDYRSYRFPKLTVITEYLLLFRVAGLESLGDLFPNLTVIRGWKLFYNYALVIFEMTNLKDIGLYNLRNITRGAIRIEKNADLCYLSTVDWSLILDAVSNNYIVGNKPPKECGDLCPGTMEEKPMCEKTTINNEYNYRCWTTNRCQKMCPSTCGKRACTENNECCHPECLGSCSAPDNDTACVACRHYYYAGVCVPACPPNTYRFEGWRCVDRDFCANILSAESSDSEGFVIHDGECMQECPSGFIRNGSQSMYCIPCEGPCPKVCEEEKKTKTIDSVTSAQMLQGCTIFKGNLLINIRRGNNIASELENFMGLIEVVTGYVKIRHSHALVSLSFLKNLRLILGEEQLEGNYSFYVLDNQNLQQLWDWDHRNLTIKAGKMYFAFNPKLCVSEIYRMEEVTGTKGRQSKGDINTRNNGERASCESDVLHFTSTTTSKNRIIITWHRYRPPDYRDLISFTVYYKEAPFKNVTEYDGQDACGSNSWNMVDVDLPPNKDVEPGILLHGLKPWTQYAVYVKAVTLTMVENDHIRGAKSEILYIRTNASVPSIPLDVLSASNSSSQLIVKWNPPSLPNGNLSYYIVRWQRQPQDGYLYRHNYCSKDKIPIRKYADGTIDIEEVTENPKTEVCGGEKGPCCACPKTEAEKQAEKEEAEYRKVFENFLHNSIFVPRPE
# Insulin-like growth factor 1 receptor, sequence (P08069 741-1367 limits assumed): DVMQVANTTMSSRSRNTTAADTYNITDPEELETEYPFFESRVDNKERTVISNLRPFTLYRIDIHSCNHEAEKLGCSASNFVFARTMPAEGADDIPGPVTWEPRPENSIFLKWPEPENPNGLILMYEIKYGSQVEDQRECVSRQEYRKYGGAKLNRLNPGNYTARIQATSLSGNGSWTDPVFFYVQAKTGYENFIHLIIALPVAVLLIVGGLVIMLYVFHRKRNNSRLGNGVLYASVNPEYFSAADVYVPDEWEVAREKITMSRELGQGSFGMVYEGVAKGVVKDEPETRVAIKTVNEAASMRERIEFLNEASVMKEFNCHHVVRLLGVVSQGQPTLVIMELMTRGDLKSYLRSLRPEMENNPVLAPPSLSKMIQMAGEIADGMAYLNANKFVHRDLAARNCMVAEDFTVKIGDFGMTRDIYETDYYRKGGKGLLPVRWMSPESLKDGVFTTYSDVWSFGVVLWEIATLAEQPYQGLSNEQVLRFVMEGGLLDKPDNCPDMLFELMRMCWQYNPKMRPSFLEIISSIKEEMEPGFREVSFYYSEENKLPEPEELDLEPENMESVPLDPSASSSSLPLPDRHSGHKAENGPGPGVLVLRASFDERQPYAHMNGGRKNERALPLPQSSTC
# [7] = target: Casein kinase I isoform delta (Homo sapiens, UniProt P48730); test: Inhibition of CSNK1D
# Casein kinase I isoform delta, sequence (P48730 whole entry, canonical isoform): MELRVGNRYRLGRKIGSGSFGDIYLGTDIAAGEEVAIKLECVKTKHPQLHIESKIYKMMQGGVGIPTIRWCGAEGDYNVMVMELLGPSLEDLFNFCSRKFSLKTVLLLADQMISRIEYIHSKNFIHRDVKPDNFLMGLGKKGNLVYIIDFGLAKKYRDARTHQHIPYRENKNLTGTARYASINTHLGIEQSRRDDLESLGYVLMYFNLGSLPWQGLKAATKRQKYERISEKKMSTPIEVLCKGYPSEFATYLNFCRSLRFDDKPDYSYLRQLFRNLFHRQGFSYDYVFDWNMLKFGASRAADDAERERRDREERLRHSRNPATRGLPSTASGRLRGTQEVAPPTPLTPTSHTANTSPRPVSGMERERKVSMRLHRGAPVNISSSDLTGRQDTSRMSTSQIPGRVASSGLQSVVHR
# [8] = target: Cyclin-dependent kinase 2 (Homo sapiens, UniProt P24941); test: Inhibition of CDK2
# [9] = target: T3, Calcium/calmodulin-dependent protein kinase type IV (Homo sapiens, UniProt Q16566); test: Inhibition of CAMK4
# T3 sequence (Q16566 whole entry): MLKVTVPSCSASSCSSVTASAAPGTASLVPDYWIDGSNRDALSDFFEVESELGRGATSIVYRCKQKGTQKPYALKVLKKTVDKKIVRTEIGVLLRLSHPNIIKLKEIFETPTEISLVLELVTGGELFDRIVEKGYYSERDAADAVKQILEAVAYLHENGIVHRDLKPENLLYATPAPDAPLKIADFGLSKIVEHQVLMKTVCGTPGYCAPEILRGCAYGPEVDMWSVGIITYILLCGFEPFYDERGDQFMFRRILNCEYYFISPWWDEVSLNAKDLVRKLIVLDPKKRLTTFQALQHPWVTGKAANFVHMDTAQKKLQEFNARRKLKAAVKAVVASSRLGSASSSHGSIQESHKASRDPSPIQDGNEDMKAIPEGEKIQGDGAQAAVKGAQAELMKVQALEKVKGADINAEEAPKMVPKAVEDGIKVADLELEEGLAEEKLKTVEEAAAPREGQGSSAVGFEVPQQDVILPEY
# [10] = target: RAC-alpha serine/threonine-protein kinase (Homo sapiens, UniProt P31749); test: Inhibition of AKT1
# RAC-alpha serine/threonine-protein kinase, sequence (P31749 whole entry): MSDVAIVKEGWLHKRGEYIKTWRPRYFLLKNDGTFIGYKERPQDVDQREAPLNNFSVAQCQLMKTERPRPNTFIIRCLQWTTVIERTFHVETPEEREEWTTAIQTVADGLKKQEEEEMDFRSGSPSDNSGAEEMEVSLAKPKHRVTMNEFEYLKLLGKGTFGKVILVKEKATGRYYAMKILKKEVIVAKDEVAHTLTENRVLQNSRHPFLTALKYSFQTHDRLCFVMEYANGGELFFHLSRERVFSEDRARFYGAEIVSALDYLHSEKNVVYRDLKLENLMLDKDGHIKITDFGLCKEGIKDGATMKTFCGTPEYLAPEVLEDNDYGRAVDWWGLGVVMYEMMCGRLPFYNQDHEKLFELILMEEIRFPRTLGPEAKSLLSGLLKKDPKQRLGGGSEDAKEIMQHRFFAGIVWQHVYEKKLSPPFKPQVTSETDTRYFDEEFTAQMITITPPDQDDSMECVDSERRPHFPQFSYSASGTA
# Ephrin type-B receptor 4 = target: T4, Ephrin type-B receptor 4 (Homo sapiens, UniProt P54760); test: Inhibition of EPHB4
# T4 sequence (P54760 whole entry): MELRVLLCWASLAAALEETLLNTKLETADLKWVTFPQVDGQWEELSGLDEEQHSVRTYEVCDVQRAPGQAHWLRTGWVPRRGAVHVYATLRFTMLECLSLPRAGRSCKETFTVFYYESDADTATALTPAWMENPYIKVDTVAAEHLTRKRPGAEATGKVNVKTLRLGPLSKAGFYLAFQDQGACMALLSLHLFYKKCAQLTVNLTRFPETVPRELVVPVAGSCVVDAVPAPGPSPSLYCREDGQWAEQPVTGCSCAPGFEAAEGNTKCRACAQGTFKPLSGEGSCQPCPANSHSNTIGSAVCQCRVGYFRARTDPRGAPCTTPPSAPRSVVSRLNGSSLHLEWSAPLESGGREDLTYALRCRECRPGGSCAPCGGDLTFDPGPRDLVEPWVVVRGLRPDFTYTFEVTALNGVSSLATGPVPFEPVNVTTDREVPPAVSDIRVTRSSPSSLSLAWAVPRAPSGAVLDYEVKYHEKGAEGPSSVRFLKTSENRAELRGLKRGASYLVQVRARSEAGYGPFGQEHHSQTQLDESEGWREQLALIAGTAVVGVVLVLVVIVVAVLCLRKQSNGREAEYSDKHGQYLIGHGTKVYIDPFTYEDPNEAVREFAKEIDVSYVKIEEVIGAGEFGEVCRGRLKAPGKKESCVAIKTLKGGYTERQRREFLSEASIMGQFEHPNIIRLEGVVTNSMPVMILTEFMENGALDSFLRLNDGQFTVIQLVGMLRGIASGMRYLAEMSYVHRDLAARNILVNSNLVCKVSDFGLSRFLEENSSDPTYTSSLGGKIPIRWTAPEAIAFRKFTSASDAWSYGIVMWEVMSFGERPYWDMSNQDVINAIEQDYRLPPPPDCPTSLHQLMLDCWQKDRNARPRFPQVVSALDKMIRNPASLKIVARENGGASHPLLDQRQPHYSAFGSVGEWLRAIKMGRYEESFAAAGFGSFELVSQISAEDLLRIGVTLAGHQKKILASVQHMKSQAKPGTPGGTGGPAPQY
# Aurora kinase B = Aurora kinase B (Homo sapiens, UniProt Q96GD4); test: Inhibition of Aurora B in human HCT116 cells assessed as inhibition of histone H3 phosphorylation by immunofluorescence assay; format: cell-based, HCT-116
# Aurora kinase B, sequence (Q96GD4 whole entry): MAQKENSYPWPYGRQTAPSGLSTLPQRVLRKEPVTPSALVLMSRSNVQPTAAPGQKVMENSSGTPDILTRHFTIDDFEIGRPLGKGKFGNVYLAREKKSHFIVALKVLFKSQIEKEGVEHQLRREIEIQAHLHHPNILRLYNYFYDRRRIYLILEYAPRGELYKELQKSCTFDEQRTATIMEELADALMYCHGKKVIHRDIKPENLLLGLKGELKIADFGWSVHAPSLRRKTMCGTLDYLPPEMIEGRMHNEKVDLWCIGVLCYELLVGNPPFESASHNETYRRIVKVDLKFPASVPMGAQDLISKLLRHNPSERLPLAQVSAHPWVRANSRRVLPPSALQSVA
IC50 [1],IC50 [2],IC50 [3],IC50 [4],IC50 [5],IC50 [6],IC50 [7],IC50 [8],IC50 [9],IC50 [10],IC50 (Ephrin type-B receptor 4),IC50 (Aurora kinase B),SMILES
> 100 nM,> 100 nM,> 100 nM,> 100 nM,> 100 nM,> 100 nM,> 100 nM,> 100 nM,> 100 nM,> 100 nM,770 nM,91 nM,Cc1cn2c(-c3cn[nH]c3)cnc2c(Nc2cc(CN3CCC(F)(F)C3)ns2)n1.Cl
> 100 nM,> 100 nM,> 100 nM,> 100 nM,> 100 nM,> 100 nM,> 100 nM,> 100 nM,> 100 nM,> 100 nM,700 nM,63 nM,Cl.[2H]C([2H])(c1cc(Nc2nc(C)cn3c(-c4cn[nH]c4)cnc23)sn1)N1CCC(F)(F)C1
> 100 nM,> 100 nM,> 100 nM,> 100 nM,> 100 nM,> 100 nM,> 100 nM,> 100 nM,> 100 nM,> 100 nM,100 nM,25 nM,CCN(Cc1cc(Nc2nc(C)cn3c(-c4cn[nH]c4)cnc23)sn1)C(C)(C)CO
